# Source: patent US11541055B2, “Inhibitors of human immunodeficiency virus replication” (ViiV Healthcare UK (No. 5) LIMITED, priority 2018, dated 2023)
# Like-named read-outs stand apart in the source and are kept apart here.
# Assays:
# Format in all cases: cell-based
# [1] = system: recombinant NL4-3 virus (Renilla luciferase) in MT-2 cells; test: HIV cell culture assay (antiviral activity, luciferase readout)
# How it was run: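 MT-2 cells were infected with recombinant NL4-3 virus carrying Renilla luciferase in place of part of nef. Cells were cultured 4–5 days with serially diluted compound, and luciferase was measured with a live-cell substrate. EC50 was calculated from the median effect equation.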
# uninfected MT2 cells = test: Compound cytotoxicity, XTT-based colorimetric assay; conditions: day 4, XTT
# How it was run: (§1)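 Run under the antiviral-assay protocol but without virus. Viability was read on day 4 and CC50 values were derived from the readout.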
# [2] = as above; conditions: human; uninfected MT2 cells, day 4, XTT
# How it was run: as §1
SMILES,"EC50 ([1]; MT-2 cells infected for 4-5 days with recombinant NL4-3 Renilla luciferase virus, luciferase activity, read-out: EC50)",CC50 (uninfected MT2 cells),"EC50 ([1]; Renilla, NL43)",CC50 at 4 days [2]
"CC(C)(C)S(=O)(=O)c1cccc(-c2ccc3c(=O)n(-c4ccc(Cl)c5c(NS(=O)(=O)C6CC6)nn(CC(F)F)c45)c([C@H](Cc4cc(F)cc(F)c4)NC(=O)Cn4nc(C(F)F)c5c4C(F)(F)[C@@H]4C[C@H]54)nc3c2)c1 [Example 146, N-[(1S)-1-{3-[4-chloro-3-cyclopropanesulfonamido-1-(2,2-difluoroethyl)-1H-indazol-7-yl]-7-[3-(2-methylpropane-2-sulfonyl)phenyl]-4-oxo-3,4-dihydroquinazolin-2-yl}-2-(3,5-difluorophenyl)ethyl]-2-[(2S,4R)-9-(difluoromethyl)-5,5-difluoro-7,8-diazatricyclo[4.3.0.0^2,^4]nona-1(6),8-dien-7-yl]acetamide]",0.39 nM,> 500 nM,,
"COc1cnc(-c2ccc3c(=O)n(-c4ccc(Cl)c5c(NS(C)(=O)=O)nn(CC(F)F)c45)c([C@H](Cc4cc(F)cc(F)c4)NC(=O)Cn4nc(C(F)F)c5c4C(F)(F)[C@@H]4C[C@H]54)nc3c2)nc1 (atropisomer, axis not shown) [Example 124, N-[(1S)-1-{3-[4-chloro-1-(2,2-difluoroethyl)-3-methanesulfonamido-1H-indazol-7-yl]-7-(5-methoxypyrimidin-2-yl)-4-oxo-3,4-dihydroquinazolin-2-yl}-2-(3,5-difluorophenyl)ethyl]-2-[(2S,4R)-9-(difluoromethyl)-5,5-difluoro-7,8-diazatricyclo[4.3.0.0^2,^4]nona-1(6),8-dien-7-yl]acetamide]",,,0.092 nM,> 500 nM
